Several values for one entry are separate records, joined by “and”; a condition that tells them apart may be missing. Equal values may be shown once.
How the values were obtained:
[1] = in vivo; cited from earlier work
[2] = in vivo; cited from earlier work; remark: listed apart in the source
[3] = cited from earlier work
[4] = single dose of 325 mg; cited from earlier work
[5] = patients with prior acute myocardial infarction or stroke; cited from earlier work
[6] = test system: platelet reactivity; settings: cited from earlier work
[7] = test system: serum TXB2; settings: 3 mg of aspirin per day, healthy volunteers; cited from earlier work
[8] = test system: 11-dehydro thromboxane B2; experiment: Urine 11-dehydro thromboxane B2 (PURR) after one-week interventions with purple grape juice, vitamin E and aspirin; assay type: in vivo, human; settings: for Mean post-intervention PURR: one week each: purple grape juice controlled daily volumes, mean baseline 1105; for Mean post-intervention PURR / % Change of PURR vs mean baseline: vitamin E 400 international units per day, aspirin 650 mg per day; for % Change of PURR vs mean baseline: one week each: purple grape juice; for effect upon urinary excretion of 11-dehydro thromboxane B2: one-week interventions, in words
Experimental: 11-dehydro thromboxane B2, a stable metabolite of platelet-specific cyclooxygenase activity, in urine specimens from 29 individuals was measured. Participants were instructed to drink controlled daily volumes of purple grape juice, 400 international units per day of vitamin E, and 650 mg per day of aspirin. Each intervention was given in one-week intervals separated by a one-week washout period. The metabolite was measured in baseline, post-intervention, and post-washout urine specimens and the results were expressed as platelet urinary response ratios (PURR) based upon pg 11-dehydrothromboxane B2/mg creatinine.

[9] = test system: platelet suppression response; settings: patients on aspirin therapy; cited from earlier work
[10] = test system: 11-dehydro TXB2; experiment: Platelet urinary response ratio (PURR), aspirin therapy vs non-users, reformulated buffer; assay type: in vivo, human
Text: The PURRs generated in the 11-dehydro thromboxane B2 assay in the present example were higher than those generated in subsequent studies. The average reduction after the investigators initial assay was 60%. This change was a result of a reformulation of the reagent buffer. Reformation of the buffer was made by the supplier, Cayman Chemical Corporation. The initial buffer was thought to be a phosphate saline buffer. The reformatted buffer is an alpha diethanolamine buffer. […] The buffer change was made to convert any lactone form present in the same urine to the free acid form of the thromboxane. The current procedure requires a two-hour pre-incubation of the urine sample in the diethanolamine buffer in order to allow for the conversion of the forms before pipetting to the plate. The new decision point for the assay is 400 PURR units, down from the original 1000.
To normalize for urinary output, results are expressed as platelet urinary response ratio (PURR) based upon pg 11-dehydro TXB2/g creatinine. Results of all populations were compared using the student t-test.

[11] = test system: platelet aggregation; settings: cited from earlier work
[12] = test system: 11-dehydro TXB2; experiment: Crossover study: urine 11-dehydro TXB2 before and 24 hours after one 81 or 325 mg aspirin tablet in 24 healthy individuals; assay type: in vivo, human; settings: for mean reduction of 11-dehydro TXB2 / PURR: healthy non-aspirin users
Experimental: (§1) In a crossover study, 24 healthy individuals who had avoided aspirin for a minimum of 10 days collected random baseline urine specimens. They then took one 81 or 325 mg tablet at 8:00 a.m. and collected a second urine specimen 24 hours after the aspirin was taken. Following a two-week washout period dosages were reversed and another baseline and 24-hours post-aspirin specimen was collected.
as §1, with “study, twenty-four” for “study, 24”, “of ten” for “of 10”, “8:00 AM” for “8:00 a.m.”, “a 2-week” for “a two-week”

[13] = test system: platelet aggregation; settings: intermittent claudication, 100 mg aspirin/day, at any given time; cited from earlier work
[14] = test system: 11-dehydro TXB2; experiment: 11-dehydro TXB2 in random urine of aspirin users and non-users (acetylcholinesterase-linked immunoassay); assay type: in vivo, human; settings: 45 people taking at least 81 mg/day; non-aspirin users 2080
Experimental: Random urine specimens were collected from 65 individuals who had avoided aspirin for at least two weeks and from 45 individuals who were taking 81 or 325 mg/day by prescription. Each specimen was assayed for 11-dehydro-TXB2. Specimens were assayed at two dilutions using acetylcholinesterase-linked immunoassay. The results were tested for parallelism and averaged. Urine creatinine was assayed using the Jaffe picrate reaction. To normalize for urinary output, results were expressed in pg 11-dehydro TXB2/mg creatinine. Results of all populations were compared using the student t-test. Within-day variation is 30% and day-to-day variation 20%.
11-dehydrothromboxane B2 (11-de-H-TXB2), a stable metabolite of platelet activation was measured in random urine specimens from 65 people who were not taking aspirin and 45 who were taking at least 81 mg/day. The means for non-aspirin users was 2080 pg 11-de-H-TXB2/mg creatinine, and for aspirin users was 523, p.<0.0000.1. Receiver-operating characteristic analysis yields an optimum decision point of 1000 pg 11-de-H-TXB2 in random urine may be used to document aspirin's platelet-suppressive effects and to identify individuals who may not achieve antithrombotic benefits.

[15] = smokers after partial ileal bypass surgery reporting even infrequent aspirin use; 45.2% with no aspirin use; cited from earlier work

Molecule: CCCCCC(O)C=CC1OC(=O)CC(O)C1CC=CCCCC(=O)O (stereo not shown) [11-dehydro TXB2, 11-dehydro thromboxane B2]
- plasma half-life [1]: 45 min

Molecule: CC(=O)Oc1ccccc1C(=O)O [Aspirin, acetyl salicylic acid]
- relative risk for hemorrhagic stroke [2]: 4 ×
- relative risk of ischemic stroke [2]: 1.6 ×
- reduction of the morning peak of infarction ([3]; between 4 and 10 a.m., 325 mg every other day): 59.3%
- mean reduction in the incidence of first myocardial infarction ([3]; healthy men, 325 mg every other day, vs placebo): 44.8%
- thrombotic events prevented, average ([3]; healthy men): four
- duration of effect on platelet laboratory assays [4]: six to ten
- new thrombotic events prevented [5]: up to 40 per thousand treated
- subjects with immediate suppression of platelet reactivity ([6]; 500 mg three times per day, upon initial administration): 90%
- secondary aspirin non-responders with myocardial infarct, repeat stroke, or vascular death ([6]; 24-month period following discharge): 40%
- remaining subjects with major endpoints ([6]; 114 remaining subjects, 24-month period): 4.4%
- reduction of serum TXB2 levels compared to placebo [7]: 39%
- Mean post-intervention PURR [8]: 379.7 PURR
- % Change of PURR vs mean baseline [8]: −65.6%
- effect upon urinary excretion of 11-dehydro thromboxane B2 [8]: large and statistically significant effect
- individuals with aspirin resistance / less than adequate platelet suppression response [9]: up to 20%
- Mean PURR, aspirin therapy ([10]; 81 to 325 mg/day, N 98, aspirin non-users 1147): 297 PURR units
- individuals identified as potential non-responders ([10]; aspirin users, decision points 400 / 500 pg 11-dehydro-TXB2/mg creatinine): 13%
- patients with only partial inhibition of platelet aggregation ([11]; atrial fibrillation, 325 mg enteric coated aspirin per day): seven of 17
- patients with restoration of platelet aggregation (aspirin resistance) ([11]; previous ischemic stroke, escalation to 1300 mg/day): 8.2%
- % Inhibition (81) ([12]; 81 mg aspirin, urine 11-dehydro TXB2 24 hours post-dose vs baseline, individual subjects 3, 8, 12, 14, 17, 18, 24 with weak response): 60% and 78% and 46% and 48% and 70% and 17% and 10%
- mean reduction of 11-dehydro TXB2 / PURR ([12]; 81 mg/day): 68%
- % Inhibition (325) ([12]; 325 mg aspirin, urine 11-dehydro TXB2 24 hours post-dose vs baseline, individual subjects 3, 8, 12, 14, 17, 18, 24 with weak response): 44% and 40% and 82% and 83% (2×) and 46% and 38%
- mean reduction of 11-dehydro TXB2 / PURR ([12]; 325 mg/day): 76%
- individuals with a less than 50% response to either 81 mg or 325 mg of aspirin ([12]; crossover study, seven individuals): 30%
- males with complete inhibition of aggregation [13]: 40%
- mean 11-de-H-TXB2 in random urine of aspirin users [14]: 523 pg 11-de-H-TXB2/mg creatinine
- overall mortality rate [15]: 10.4%

Molecule: Vitamin E
- Mean post-intervention PURR [8]: 1293.1 PURR
- % Change of PURR vs mean baseline [8]: +14.3%
- effect upon urinary excretion of 11-dehydro thromboxane B2 [8]: no measurable effect

— patent US6994983B2, “Kits for determination of thromboxane B2 metabolite and optimizing aspirin dosage” (Esoterix, Inc. Coagulation, priority 1999, dated 2006)
